Patent US6894153B1, “Gene Any-RF; dormancy regulatory substance, process for producing the same and cell regulator for vital cells” (priority 1999, dated 2005)
No end group written: not given here.

Columns and labels:
[1] = tested on: pre-larvae of Antheraea yamamai; experiment: Bioassay of dormancy-control in pre-larvae destined to awake by KK-42 treatment
Description: In general, the activity of a repressive factor is determined using a non-dormancy type insect and evaluated on the basis of the rate of dormancy induction, but there is not any non-dormancy type strain in Antheraea yamamai.
Subsequent to the completion of the treatment for awakening from the dormancy, 0.05 μl each of distilled water was injected to each larva after 24 hours from the completion of the treatment and this group of larvae was used as the control group. In the case of the isolated and purified product, a solution whose concentration was adjusted in such a manner that 100 pmol of the product was present in 0.05 μl of distilled water was injected into each larva, while in the case of the synthetic peptides in the amidated and free acid forms, 100 pmol/0.05 μl each of the peptide was injected into each larva. In any case, the larvae were inspected for the number of larvae falling into dormancy, the number of larvae awakening from the dormancy, the number of died larvae and the average days required till awakening from the dormancy (diapause termination) to thus evaluate the rate of larvae awakening from the dormancy.
After 24 hours from the treatment with the KK-42 solution, 0.05 μl of distilled water was injected to the pre-larvae, followed by a second distilled water injection thereto after additional 24 hours and a third distilled water injection after additional 24 hours from the second distilled water injection (in the following Table 2, they are referred to as control 1, 2 and 3 respectively). And the rate of pre-larvae awaken from the dormancy (the rate of diapause termination) was evaluated in each case.

[2] = tested on: rat hepatoma cells (dRLh84); experiment: Assay for cancer cell growth-control (viable cell count, trypan blue); type: cell-based
Description: (§1) Rat hepatoma cells (dRLh 84) were used and these cells were cultivated in Dulbecco's modified Eagle medium (DMEM) containing 4 mM glutamine, 50U/ml penicillin, 100 μg/ml kanamycin, and supplemented with 10% neonatal calf serum. In respect of the foregoing cells, the cultivation thereof was carried out at 37° C. in a wet atmosphere including 5% CO2.
The used culture medium was removed from a (100 mm dish (generally schale) in which cells were cultured and the dish was once washed with PBS(−) (prepared by removing Ca and Mg ions from phosphate buffered saline). To the dish, there was gently added 1.5 ml of a 10% trypsin solution so that the solution uniformly spreaded throughout the dish, 1 ml of the solution was removed, the dish was maintained at 37° C. for 5 minutes and it was confirmed with a microscope that the cells were pealed off from the bottom of the dish. Then 9.5 ml of a fresh DEME medium was added to the dish and the cells were separated into individual cells by pipetting to thus suspend the cells in the medium. Dishes of Φ100 mm were inoculated with this suspension in a dilution of 1/20 (total amount: 10 ml), followed by introduction thereof into an incubator and cultivation for 24 hours. Each peptide was added to these dishes in a predetermined concentration, followed by cultivation at 37° C., determination of the number of cells using a blood counting plate after 24 and 48 hours from the initiation of the cultivation to thus inspect the peptides for their cell growth-control functions.
Rat hepatoma cells (dRLh84, 3×10^5 cells) were cultured in a culture medium, to which the peptide (DILRG—NH2, SEQ ID NO:5, the peptide of SEQ ID NO:1 having the C-terminal amidated or DILRG—COOH, SEQ ID NO:1) was added in a predetermined amount (0, 50, 100, 150, 200 μg/ml) in the presence of 5% CO2 at 37° C. for 40 hours. Thereafter, the culture medium was treated with trypan blue to determine the […] cell count.
Thus, the cultivation time was extended to investigate the relation between the proliferation ability of cancer cells and the cultivation time using the physiologically active substance of the present invention. The method for cultivation used herein was identical to that used in Example 7. The cultivation time was extended up to 72 hours. The cultivation of 3×10^5 cells was carried out using a culture medium supplemented with PBS(−) for a control group and a cell culture medium for an experimental group, to which 200 μg/ml of the peptide (DILRG—NH2) was added, in the presence of 5% CO2 at 37° C. for 24, 48 and 72 hours, respectively. Thereafter, the culture medium was treated with trypan blue to determine the viable cell count.
The fact that the physiologically active substance derived from insects can results obtained in Examples 6, 7 and 8. […] Thus, we investigated which part of the 5 amino acid sequence of this substance is indispensable to the cell growth-control activity from the structural standpoint. Cells were cultured by the same method used in Example 6. More specifically, in the control group, there were used a culture medium supplemented with PBS(−) and FMRF—NH2(SEQ ID NO:4), which is widely distributed from echinoderms to insects and mammals, which comprises 4 amino acid residues and whose C-terminal is amidated. In an experimental group, there was used a culture medium supplemented with the complete synthetic peptide (DILRG—NH2) or an incomplete synthetic peptide (ILRG—NH2) free of the aspartic acid residue at the N-terminal in a concentration of 200 μg/2.6×10^5 cells. The control group and the experimental group were cultured at 37° C. for 48 hours in the presence of 5% CO2. Thereafter the cells were stained with trypan blue to thus determine the number of cells.

[3] = tested on: rat hepatoma cells (dRLh84); experiment: Morphological observation of cultured cancer cells (inverted microscope); type: cell-based; details: 200 μg/ml
Description: as §1
The inhibitory effect of the penta-peptide on the growth of cancer cells was examined as follows. As the cancer cells, there were used rat hepatoma cells (dRLh84), which were relatively easily available and whose cultivation was easy. To make clear the relation between the physiologically active substance (RF—NH2) of the present invention and the growth of cancer cells, cancer cells were cultured in a cell culture medium supplemented with PBS(−) for a control group and culture mediums supplemented with 200 μg/ml each of the peptide whose C-terminal was amidated, i.e., RF—NH2 and the peptide whose C-terminal was in a free acid form, i.e., RF—COOH, respectively, for the experimental groups. The number of cultured cells was adjusted to 3 to 5×10^5, and the cells were cultured with or without a predetermined amount of each peptide in the presence of 5% CO2 at 37° C. […]

[4] = tested on: rat hepatoma cells (dRLh84); experiment: Flow cytometric analysis of cell cycle (propidium iodide DNA content); type: cell-based; details: 200 μg/ml; 48 hours
Description: The cells treated with each peptide was fixed at 4° C. for 4 hours using 70% ethanol. The fixed cells were washed with PBS(−), then treated with 2 mg/ml of RNaseA at 37° C. for 30 minutes to thus […] the RNA. Thereafter, the cells were stained with propidium iodide (25 μg/ml) for not less than 30 minutes and filtered through a nylon mesh. Then the intensity of fluorescence (DNA content per cell) observed for 10,000 cells was analyzed using a flow cytometer ([…] available from Becton Dickinson Company).
The fact that the physiologically active substance of the present invention can inhibit the cell growth ability of the rat hepatoma is substantiated experimentally by the results obtained in Examples 6, 7 and 8 (FIGS. 9, 10 and 11). Thus, we tried to elucidate the mechanism of the inhibition. The peptide (DILRG—NH2)(200 μg/ml) was added to the culture medium under the same conditions used in Example 6 and the cells were cultured, followed by fixing the cells after cultivation of 48 hours with ethanol and then staining the cells with propidium iodide. In addition, the same procedures used above were repeated using a culture medium supplemented with PBS(−) as a control group. The DNA content in the cells was analyzed using a flow cytometer. The flow cytometric analysis employed for this purpose comprises the step of staining cells with propidium iodide, which is a fluorescent dye capable of being linked with DNA to thus determine the DNA content of the cell and this method permits the analysis of the cell cycle control. More specifically, the biological cell multiplies by cell division while undergoing the following cycle change: G0/G 1. S (DNA replication stage) and M stage (cell division stage) in this order. FIGS. 12(A) and 12(B) are graphs each showing the results obtained by determining the DNA content in each cancer cell using a flow cytometer and then analyzing the results. It can be predicted from the data shown in FIGS. 12(A) and 12(B), i.e., the cell cycle change observed for the control group (PBS(−) was used, FIG. 12(A)) and that observed for the experimental group (RF—NH2 was used, FIG. 12(B)), that the pattern of the rat hepatoma cell cycle is differently affected by the presence and absence of the peptide.
Then the patterns observed in FIGS. 12(A) and 12(B) were examined in detail. In the G0/G1 stage, the DNA content is 2n, while that observed in the M stage is two times that observed for the G0/G1 stage or 4n. In the analysis of data shown in FIGS. 12(A) and 12(B), the DNA contents of 2n and 4n correspond to peaks or wide peaks at 360 and 700, respectively. If it is assumed that the analyzed pattern of the cell cycle change shown in FIGS. 12(A) and 12(B) comprises a linear coupling of peaks specific to G0/G1, S, M stages, the rate of cells in each stage can be obtained by dividing the pattern into these individual components.

[5] = Acute toxicity test in rats; type: in vivo
Description: (§2) The foregoing peptide of the present invention as the physiologically active substance is almost free of an) side effect in the living body as compared with the conventional Cecropin and Pierisin and any acute toxicity is not observed at all. More specifically, the peptide of the present invention was administered to rats and mice through two routes, i.e., oral and percutaneous routes, in an amount of 0.5 g per unit body weight (1 kg) and the acute toxicity test was carried out according to the predetermined method. […] Moreover, the testis of the genital organ was removed from each animal after the acute toxicity test and the tissue was examined with a microscope. […] In addition, the peptide of the present invention is a low molecular weight penta-peptide and therefore, it never causes any antigen-antibody reaction and it is safe.

[6] = Acute toxicity test in mice; type: in vivo
Description: as §2

[7] = tested on: cultured cells of lymphoma and leukemia; details: Moore et al. 1994; cited from earlier work
[8] = 100 pmol/0.05 μl injected once 24 hours after KK-42 treatment
[9] = 100 pmol/0.05 μl injected once 24 hours after KK-42 treatment, N 10 × 3
[10] = Table 2, 100 pmol/0.05 μl × 1, N 10 × 3
[11] = Table 2, 100 pmol/0.05 μl × 2 (24 hours apart), N 10 × 3
[12] = Table 2, 100 pmol/0.05 μl × 3 (24 hours apart), N 10 × 3
[13] = Example 10, 200 μg/2.6×10^5 cells, 48 hours
[14] = after the acute toxicity test, 0.5 g/kg oral and percutaneous
[15] = oral and percutaneous routes, 0.5 g per unit body weight (1 kg)

Substance: H-DILRG-NH2 [Asp-Ile-Leu-Arg-Gly-NH2]
- No. of Days (Time (day) required till Awakening) [1, 8]: 6.72 days
- Rate (the rate of larvae awakening from dormancy) [1, 8]: 53.3%
- Number of Insects Awa (Awakening from Dormancy) [1, 9]: 16
- Number of Insects Died [1, 9]: 0
- Number of Insects Dor (Dormancy) [1, 9]: 14
- Rate of Diapause Termination ([1]; Table 2, 100 pmol/0.05 μl × 1): 53.3%
- Number of Insects Awa (Diapause Termination) [1, 10]: 16
- Number of Insects Died [1, 10]: 0
- Number of Insects Dor (Dormancy) [1, 10]: 14
- Rate of Diapause Termination ([1]; Table 2, 100 pmol/0.05 μl × 2 (24 hours apart)): 30%
- Number of Insects Awa (Diapause Termination) [1, 11]: 9
- Number of Insects Died [1, 11]: 0
- Number of Insects Dor (Dormancy) [1, 11]: 21
- Rate of Diapause Termination ([1]; Table 2, 100 pmol/0.05 μl × 3 (24 hours apart)): 13.3%
- Number of Insects Awa (Diapause Termination) [1, 12]: 4
- Number of Insects Died [1, 12]: 0
- Number of Insects Dor (Dormancy) [1, 12]: 26
- viable cell count ([2]; Example 7, 50 μg/ml, 3×10^5 cells cultured 40 hours): markedly reduced
- viable cell count ([2]; Example 7, 200 μg/ml, 3×10^5 cells cultured 40 hours): 7.7×10^5 cells
- viable cell count relative to that observed for the control group ([2]; Example 7, 200 μg/ml, 40 hours): a half
- viable cell count ([2]; Example 8, 200 μg/ml, from 3×10^5 cells within 72 hours): 8×10^5 cells
- factor of increase of the number of cells ([2]; Example 8, 200 μg/ml, within 72 hours): 2.7
- viable cell count [2, 13]: ~7.7×10^5 cells
- cancer cell growth after transfer to fresh culture medium without peptide ([2]; after cultivation for 48 hours with 200 μg/ml peptide): rapidly began to proliferate like the control group
- number of cancer cells compared with the initiation of the cultivation (0 hour) ([3]; after 24 and 48 hours): not increased at all
- shape of the cells ([3]; after 48 hours): changed from a spindle-like shape to a circular shape
- G0/G1 stage rate higher than that observed for the control group [4]: not less than 30%
- Rate of cells in G0/G1 Stage [4]: 66.07%
- Rate of cells in G2/M Stage [4]: 12.10%
- Rate of cells in S Stage [4]: 21.84%
- S stage rate lower than that observed for the control group [4]: not less than 40%
- testis tissue examined with a microscope [5, 14]: any abnormality was not observed at all
- acute toxicity such as convulsion and vomiting [5, 15]: not observed any acute toxicity
- testis tissue examined with a microscope [6, 14]: any abnormality was not observed at all
- acute toxicity such as convulsion and vomiting [6, 15]: not observed any acute toxicity

Substance: 1-benzyl-5-[(E)-2,6-dimethyl-1,5-heptadienyl] [KK-42, reference compound]
- larvae awakened from the dormancy ([1]; 0.1 μg/0.5 μl solution in acetone applied on the ventral portion of each larva): 100%

Substance: Cecropin
- anti-tumor activity to cultured cells [7]: anti-tumor activity

Substance: DILRG-OH [Asp-Ile-Leu-Arg-Gly-COOH]
- Number of Insects Died [1, 9]: 0

Substance: Ile-Leu-Arg-Gly (ILRG-NH2) [ILRG—NH2]
- growth-inhibitory effect [2, 13]: sufficient growth-inhibitory effect
- viable cell count [2, 13]: 8.4×10^5 cells
